Strand notation (5' to 3'): a small letter for the sugar, then the base; units joined by * are phosphorothioate-linked, units joined directly phosphodiester-linked; [ ] holds rarer units or linkages, { } end groups; capitals alone tell only the bases. k = constrained ethyl (cEt); [5mC] = 5-methylcytosine; d = 2'-deoxy (DNA)
Test system: Yap1 mRNA
Test: Dose-dependent inhibition of human Yap1 in A-431 cells (Example 8, 10,000 cells per well, RTS4814)
Assay type: cell-based
Details: free uptake, approximately 48 hours, RTS4814; for Yap1 mRNA, % UTC: A-431 cells, 10,000 cells per well; for IC50: A-431 cells, linear regression on log/linear plot
In short: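 Yap1 mRNA, normalized to RIBOGREEN total RNA and expressed as % untreated control, was read with RTS4814 about 48 h after free-uptake oligonucleotide treatment of A-431 cells at 10,000 cells/well. IC50 derived by linear regression of log/linear data.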

Substance | Yap1 mRNA, % UTC (31.3 nM) [% UTC] | Yap1 mRNA, % UTC (125.0 nM) [% UTC] | Yap1 mRNA, % UTC (500.0 nM) [% UTC] | Yap1 mRNA, % UTC (2000.00 nM) [% UTC] | IC50 [nM]
1075785 (k[5mC]*kA*kT*dT*dT*dT*dA*dT*dA*dG*dG*dG*d[5mC]*k[5mC]*kA*kT; antisense) [compound 1075785] | 29 | 7 | 3 | 3 | < 20
1076490 (k[5mC]*k[5mC]*kA*dA*dA*dA*dT*dA*dG*dG*dT*dG*dA*kG*kT*k[5mC]; antisense) [compound 1076490] | 36 | 9 | 4 | 3 | < 20
1074852 (kA*kA*kT*dT*dG*dT*dT*dA*dT*dG*dA*dT*dA*kG*kG*k[5mC]; antisense) [compound 1074852] | 36 | 11 | 4 | 4 | < 20
1076293 (kG*k[5mC]*kT*dT*dA*dT*dT*dA*dT*dT*dG*dA*dG*kT*kT*kA; antisense) [compound 1076293] | 49 | 18 | 6 | 5 | < 20
1074792 (kA*kT*k[5mC]*dA*dA*dT*dG*dT*dG*d[5mC]*dT*d[5mC]*d[5mC]*kA*kT*k[5mC]; antisense) [compound 1074792] | 48 | 17 | 7 | 5 | < 20
1074536 (kA*kG*kT*dA*dA*dT*dA*dG*d[5mC]*dT*d[5mC]*dT*dT*kT*k[5mC]*kT; antisense) [compound 1074536] | 64 | 24 | 9 | 6 | 40
1075842 (kG*kT*kA*dT*dT*dT*dA*dG*dG*dT*dA*d[5mC]*dT*k[5mC]*kA*kG; antisense) [compound 1075842] | 27 | 7 | 3 | 3 | < 20
1076299 (k[5mC]*kG*kT*dT*dA*dT*dA*dA*dA*dG*dA*d[5mC]*d[5mC]*k[5mC]*kA*kA; antisense) [compound 1076299] | 68 | 38 | 13 | 5 | 100
1074753 (kT*kA*k[5mC]*dA*dT*dT*dA*dG*dG*dA*dA*d[5mC]*dA*kA*kG*kG; antisense) [compound 1074753] | 42 | 10 | 6 | 4 | < 20
1075401 (antisense k[5mC]*kG*kA*dT*dT*dA*dA*dA*dA*d[5mC]*dA*d[5mC]*dT*kG*kG*kT) [compound 1075401] | 62 | 26 | 11 | 7 | 40
1075808 (kG*k[5mC]*kA*dA*dT*dA*dG*dA*dG*dT*dA*dA*d[5mC]*k[5mC]*kA*kG; antisense) [compound 1075808] | 38 | 9 | 4 | 4 | < 20
1076483 (kA*k[5mC]*kG*dG*dG*dA*dA*dA*dT*d[5mC]*dA*dT*dA*kT*kA*kG; antisense) [compound 1076483] | 63 | 27 | 11 | 6 | 40
1075457 (antisense kA*kG*kT*dA*dA*dT*dA*dT*dG*dT*dA*d[5mC]*dA*kT*kG*kG) [compound 1075457] | 52 | 21 | 8 | 6 | < 20
1076000 (k[5mC]*k[5mC]*kT*dA*dA*dT*dA*dT*dG*dA*d[5mC]*dT*d[5mC]*k[5mC]*kT*kT; antisense) [compound 1076000] | 71 | 31 | 10 | 5 | 100
1074628 (DNA kG*k[5mC]*k[5mC]*dT*dG*dT*dT*dA*dT*dG*dA*dA*d[5mC]*k[5mC]*k[5mC]*kT) [compound 1074628] | 29 | 13 | 7 | 6 | < 20

Reference: patent US11214803B2, “Modulators of YAP1 expression” (Ionis Pharmaceuticals, Inc., priority 2019, dated 2022)
